Consider 61 molecules from US20130131075A1, “NEW COMPOUNDS” (Boehringer Ingelheim International GmbH, priority 2009, published 2013).

The target in the assay is T1, cynomolgus BK1-receptor (Macaca fascicularis, UniProt Q3BCU0).
T1 construct: expressed in transfected cells; host or cells: CHO cells (homogenate)
T1 sequence (Q3BCU0 1-352): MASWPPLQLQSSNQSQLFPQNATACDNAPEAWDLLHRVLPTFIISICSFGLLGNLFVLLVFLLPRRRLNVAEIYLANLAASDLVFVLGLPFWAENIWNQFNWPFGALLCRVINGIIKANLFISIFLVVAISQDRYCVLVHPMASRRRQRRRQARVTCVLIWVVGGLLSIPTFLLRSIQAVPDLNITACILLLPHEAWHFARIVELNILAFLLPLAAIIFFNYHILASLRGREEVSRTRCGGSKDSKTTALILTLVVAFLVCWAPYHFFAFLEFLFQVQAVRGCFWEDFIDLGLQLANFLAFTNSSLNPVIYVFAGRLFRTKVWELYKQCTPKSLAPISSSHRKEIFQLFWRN
Nature of the assay: cynoBK1-receptor binding assay. Particulars: CHO cells expressing cynomolgus BK1-receptor, radioligand kallidine (DesArg10,Leu9); for inhibition at 10 µM: at 10 μgmol/L. Put shortly: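 Ki derived by non-linear fitting of concentration-binding curves. Test compound competed against 0.5 to 5.0 nM tritiated kallidine (DesArg10,Leu9) on cynomolgus BK1-CHO cell homogenate (50 to 250 μg protein/assay) for 60-180 minutes at ambient temperature, then filtered. 1.0 μM kallidine (DesArg10) set non-specific binding.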

By Ki is commonly meant a dissociation constant, usually derived from enzyme kinetics or from competition with a known ligand. The inhibition is the drop in the measured response relative to a control, in per cent.

As for `Cc1ncc(C(=O)NC2(C(=O)NCc3ncc(Nc4ccccc4C(F)(F)F)cc3C)CC2)cn1` [(374)], the Ki was 5.5 nM.
The same measure, in the same setting: to `CNc1cncc(C(=O)N[C@@]2(C(=O)NCc3ncc(Nc4c(F)cccc4C(F)(F)F)cc3Cl)CCOC2)c1` [(259)] belongs 394 nM.
`O=C(NC1(C(=O)NCc2ccc(Nc3ccc(Br)cc3C(F)(F)F)cn2)CC1)c1ccnnc1` [(174)]: the inhibition at 10 µM came out at 99%.
As to `Cc1ncc(C(=O)N[C@@]2(C(=O)NCc3ccc(Nc4ccc(F)cc4C(F)(F)F)cn3)CCOC2)cn1` [(307)], the Ki is 54 nM.
Regarding `O=C(NC1(C(=O)NCc2ccc(Nc3c(F)cccc3Cl)cn2)CC1)c1cncnc1` [(200)], the inhibition at 10 µM amounted to 92%.
Take `O=C(NC1(C(=O)NCc2ccc(Nc3ccc(F)cc3C(F)(F)F)cn2)CC1)c1cncnc1` [(41)]: affinity was put at a Ki of 2.6 nM and the inhibition at 10 µM amounted to 108%.
`CNc1ncc(C(=O)N[C@@]2(C(=O)NCc3ncc(Nc4ccc(Cl)cc4C(F)(F)F)cc3Cl)CCOC2)cn1` [(281)] came in with a Ki of 21 nM.
As to `CN(c1ccccc1)c1ccc(CNC(=O)C2(NC(=O)c3cncnc3)CC2)cc1` [(109)], the inhibition at 10 µM was found to be 27%.
With `CCNc1ccc(C(=O)NC2(C(=O)NCc3ccc(Nc4ccc(Br)cc4C(F)(F)F)cn3)CC2)cn1` [(334)], the affinity corresponds to a Ki of 20 nM.
Turning to `O=C(NC1(C(=O)NCc2ccc(Nc3ccc(Br)cc3C(F)(F)F)cn2)CC1)c1cccc(O)n1` [(140)], the affinity, expressed as Ki, was 14 nM and the inhibition at 10 µM turned out to be 106%.
`O=C(NC1(C(=O)NCc2ccc(Nc3ccccc3C(F)(F)F)cc2)CC1)C(F)(F)F` [(23)]: the inhibition at 10 µM is 110%.
As for `Cc1nc(N)sc1C(=O)NC1(C(=O)NCc2ccc(Nc3ccc(F)cc3C(F)(F)F)cn2)CC1` [(186)], the inhibition at 10 µM is 82%.
For `CNc1cc(C(=O)NC2(C(=O)NCc3ccc(Nc4ccc(F)cc4C(F)(F)F)cn3)CC2)cnn1` [(227)], the Ki was 97 nM.
As for `O=C(NC1(C(=O)NCc2ccc(Nc3ccccc3C(F)(F)F)cc2)CC1)C1CC1` [(15)], the inhibition at 10 µM came out at 99%.
`Nc1cncc(C(=O)NC2(C(=O)NCc3ccc(Nc4ccccc4C(F)(F)F)cc3)COC2)c1` [(273)] returned a Ki of 141 nM.
Turning to `Nc1cncc(C(=O)NC2(C(=O)NCc3ncc(Nc4ccc(F)cc4C(F)(F)F)cc3F)CC2)c1` [(152)], the affinity corresponds to a Ki of 3.2 nM and the inhibition at 10 µM worked out at 105%.
As for `CC(C)c1ccc(Nc2ccc(CNC(=O)C3(NC(=O)c4cncnc4)CC3)nc2)c(C(F)(F)F)c1` [(204)], affinity was put at a Ki of 402 nM.
The same measure, in the same setting: to `Nc1cncc(C(=O)N[C@@]2(C(=O)NCc3ccc(Nc4ccc(Cl)cc4C(F)(F)F)cc3)CCOC2)c1` [(321)] belongs 57 nM; to `CC(NC(=O)C1(NC(=O)c2cncnc2)CC1)c1ncc(Nc2ccc(Br)cc2C(F)(F)F)cc1F` (centres unmarked) [(213)], 1.9 nM.
`O=C(NC1(C(=O)NCc2ccc(Nc3ccccc3C(F)(F)F)cc2)CC1)c1cncnc1` [(4)]: the inhibition at 10 µM was 109%.
Consider `COc1ncc(C(=O)NC2(C(=O)NCc3ccc(Nc4ccc(F)cc4C(F)(F)F)cn3)CC2)cn1` [(233)], for which affinity was put at a Ki of 10 nM.
Consider `Nc1cncc(C(=O)N[C@@]2(C(=O)NCc3ncc(Nc4ccccc4C(F)(F)F)cc3Cl)CCOC2)c1` [(229)], for which the Ki came to 27 nM.
`O=C(N[C@@]1(C(=O)NCc2ccc(Nc3ccc(F)cc3C(F)(F)F)cc2)CCOC1)c1cncs1` [(299)]: the affinity, expressed as Ki, was 222 nM.
Molecule `O=C(CC(F)(F)F)N[C@@]1(C(=O)NCc2ncc(Nc3c(F)cccc3C(F)(F)F)cc2Cl)CCOC1` [(261)] had a Ki of 456 nM.
Same read-out and setting: as for `CNc1cncc(C(=O)N[C@@]2(C(=O)NCc3ncc(Nc4ccc(F)cc4C(F)(F)F)cc3F)CCOC2)c1` [(260)], the figure is 43 nM.
Turning to `CNc1cncc(C(=O)NC2(C(=O)NCc3ccc(Nc4ccc(F)cc4C(F)(F)F)cn3)CC2)n1` [(168)], the affinity, expressed as Ki, was 235 nM and the inhibition at 10 µM was determined as 90%.
`O=C(NC1(C(=O)NCc2ccc(Nc3ccc(F)cc3C(F)(F)F)cn2)CC1)c1cnc(N2CCCCC2)nc1` [(248)] displayed a Ki of 276 nM.
As to `CN1CCC(C(=O)NC2(C(=O)NCc3ccc(Nc4ccccc4C(F)(F)F)cc3)CC2)CC1` [(22)], the inhibition at 10 µM amounted to 60%.
Turning to `COc1cncc(C(=O)NC2(C(=O)NCc3ccc(Nc4ccc(F)cc4C(F)(F)F)cn3)CC2)c1` [(376)], the affinity, expressed as Ki, was 61 nM.
Take `Cc1ncc(C(=O)NC2(C(=O)NCc3ccc(Nc4ccc(Br)cc4C(F)(F)F)cn3)CC2)cn1` [(139)]: the affinity, expressed as Ki, was 2.8 nM and the inhibition at 10 µM is 107%.
In the case of `O=C(N[C@@]1(C(=O)NCc2ccc(Nc3ccccc3C(F)(F)F)cc2)CCOC1)c1cccc(O)n1` [(70)], the inhibition at 10 µM worked out at 107%.
As for `N#Cc1ccc(C(=O)NC2(C(=O)NCc3ccc(Nc4ccc(F)cc4C(F)(F)F)cn3)CC2)cn1` [(256)], the affinity, expressed as Ki, was 72 nM.
Same read-out and setting: to `CNc1ccc(C(=O)NC2(C(=O)NCc3ccc(Nc4ccc(Br)cc4C(F)(F)F)cn3)CC2)cn1` [(343)] belongs 7.2 nM; to `Cc1ccc(C(=O)NC2(C(=O)NCc3ccc(Nc4ccc(F)cc4C(F)(F)F)cn3)CC2)cn1` [(341)], 69 nM.
With `Cc1cccc(C(F)(F)F)c1Nc1ccc(CNC(=O)C2(NC(=O)c3cncnc3)CC2)nc1` [(49)], the Ki was determined as 365 nM and the inhibition at 10 µM is 103%.
The molecule `Nc1cncc(C(=O)N[C@@]2(C(=O)NCc3ccc(Nc4ccccc4C(F)(F)F)cc3F)CCOC2)c1` [(236)] had a Ki of 8.2 nM.
The same measure, in the same setting: as for `Cc1ccc(C(=O)NC2(C(=O)NCc3ccc(Nc4ccc(Br)cc4C(F)(F)F)cn3)CC2)cn1` [(315)], the figure is 40 nM.
Turning to `O=C(NC1(C(=O)NCc2ccc(Nc3ccccc3C(F)(F)F)cc2)CC1)c1cccnc1` [(11)], the inhibition at 10 µM amounted to 99%.
In the case of `CCNc1ncc(C(=O)N[C@@]2(C(=O)NCc3ccc(Nc4ccc(F)cc4C(F)(F)F)cc3)CCOC2)cn1` [(328)], the affinity corresponds to a Ki of 33 nM.
On the same count and under the same terms, as for `CN(C)c1ccc(C(=O)NC2(C(=O)NCc3ccc(Nc4ccc(Cl)cc4C(F)(F)F)cn3)CC2)cn1` [(263)], the figure is 485 nM.
In turn, `Nc1cncc(C(=O)N[C@@]2(C(=O)NCc3ncc(Nc4ccccc4C(F)(F)F)cc3F)CCOC2)c1` [(320)] had a Ki of 19 nM.
Same read-out and setting: to `CC(=O)Nc1cncc(C(=O)NC2(C(=O)NCc3ccc(Nc4ccc(Cl)cc4C(F)(F)F)cn3)CC2)c1` [(275)] belongs 405 nM.
Regarding `O=C1CCC(C(=O)NC2(C(=O)NCc3ccc(Nc4ccccc4C(F)(F)F)cc3)CC2)N1` (centres unmarked) [(5)], the inhibition at 10 µM is 88%.
Consider `O=C(NC1(C(=O)NCc2ccc(Nc3ccc(F)cc3C(F)(F)F)cn2)CC1)c1ccc(Cl)nc1` [(253)], for which the Ki came out at 49 nM.
In the case of `O=C(NC1(C(=O)NCc2ncc(Nc3ccc(Cl)cc3C(F)(F)F)cc2F)CC1)c1cncnc1` [(165)], the inhibition at 10 µM turned out to be 101%.
`O=C(NC1(C(=O)NCc2ccc(Nc3ccc(F)cc3C(F)(F)F)cn2)CC1)c1cncc(Cl)c1` [(339)] registered a Ki of 49 nM.
Turning to `Nc1cncc(C(=O)N[C@@]2(C(=O)NCc3ncc(Nc4ccc(Cl)cc4C(F)(F)F)cc3F)CCOC2)c1` [(271)], the Ki worked out at 17 nM.
For the molecule `O=C(N[C@@]1(C(=O)NCc2ccc(Nc3ccccc3C(F)(F)F)cc2)CCOC1)c1ccnc(Cl)c1` [(61)], the inhibition constant (Ki) is over 500 nM and the inhibition at 10 µM turned out to be 97%.
On to `CCCNc1ccc(C(=O)NC2(C(=O)NCc3ccc(Nc4ccc(Cl)cc4C(F)(F)F)cn3)CC2)cn1` [(330)], for which the Ki is 35 nM.
Still for that read-out and setting: as for `Cc1cc(Nc2ccc(Cl)cc2C(F)(F)F)cnc1CNC(=O)[C@]1(NC(=O)c2cncc(N)c2)CCOC1` [(346)], the figure is 48 nM.
In the case of `CN1CC(C(=O)N[C@@]2(C(=O)NCc3ccc(Nc4ccccc4C(F)(F)F)cc3)CCOC2)CC1=O` (some centres unmarked) [(71)], the inhibition at 10 µM stood at 80%.
Still for that read-out and setting: to `O=C(NC1(C(=O)NCc2ccc(Nc3ccc(Cl)cc3C(F)(F)F)cn2)CC1)c1cncs1` [(149)] belongs 100%; to `O=C(NC1(C(=O)NCc2ccc(Nc3ccc(F)cc3Cl)cn2)CC1)c1cncnc1` [(190)], 91%.
In turn, `COc1ncc(C(=O)N[C@@]2(C(=O)NCc3ncc(Nc4ccc(F)cc4C(F)(F)F)cc3Cl)CCOC2)cn1` [(230)] had a Ki of 6.1 nM.
For `CCC(=O)NC1(C(=O)NCc2ccc(Nc3ccccc3C(F)(F)F)cc2)CC1` [(13)], the inhibition at 10 µM is 101%.
Consider `CC(NC(=O)C1(NC(=O)c2cncnc2)CC1)c1ccc(Nc2ccc(Br)cc2C(F)(F)F)cn1` (centres unmarked) [(180)], for which the Ki came out at 1.6 nM and the inhibition at 10 µM came out at 106%.
The like results for `CC(NC(=O)[C@]1(NC(=O)c2cncnc2)CCOC1)c1ccc(Nc2ccc(Cl)cc2C(F)(F)F)cn1` (some centres unmarked) [(163)] were, in that order, 288 nM and 87%.
With `Cc1ncc(C(=O)NC2(C(=O)NCc3ccc(Nc4ccc(F)cc4C#N)cc3)CC2)cn1` [(181)], the affinity corresponds to a Ki of 19 nM and the inhibition at 10 µM is 99%.
With `CNc1ncc(C(=O)NC2(C(=O)NCc3ncc(Nc4c(F)cccc4C(F)(F)F)cc3F)CC2)cn1` [(133)], the inhibition at 10 µM is 101%.
Same read-out and setting: to `Cc1ncncc1C(=O)N[C@@]1(C(=O)NCc2ccc(Nc3ccccc3C(F)(F)F)cc2)CCOC1` [(77)] belongs 96%; to `Cc1nnc(C(=O)NC2(C(=O)NCc3ccc(Nc4ccccc4C(F)(F)F)cc3)CC2)o1` [(27)], 104%.
